Measured values from ChEMBL document CHEMBL4342480, “Design of Dual Inhibitors of Soluble Epoxide Hydrolase and LTA4 Hydrolase” (ACS Med Chem Lett, 2020).

Tests used:
[1] = target: T1, Bifunctional epoxide hydrolase 2 (Homo sapiens, UniProt P34913); assay: Inhibition of full length human soluble epoxide hydrolase (1 to 555 residues) expressed in Escherichia coli BL21(DE3) using non-fluorescent PHOME as substrate preincubated for 30 mins followed by substrate addition and measured for 30 mins by fluorescence based assay
T1 sequence (P34913 whole entry): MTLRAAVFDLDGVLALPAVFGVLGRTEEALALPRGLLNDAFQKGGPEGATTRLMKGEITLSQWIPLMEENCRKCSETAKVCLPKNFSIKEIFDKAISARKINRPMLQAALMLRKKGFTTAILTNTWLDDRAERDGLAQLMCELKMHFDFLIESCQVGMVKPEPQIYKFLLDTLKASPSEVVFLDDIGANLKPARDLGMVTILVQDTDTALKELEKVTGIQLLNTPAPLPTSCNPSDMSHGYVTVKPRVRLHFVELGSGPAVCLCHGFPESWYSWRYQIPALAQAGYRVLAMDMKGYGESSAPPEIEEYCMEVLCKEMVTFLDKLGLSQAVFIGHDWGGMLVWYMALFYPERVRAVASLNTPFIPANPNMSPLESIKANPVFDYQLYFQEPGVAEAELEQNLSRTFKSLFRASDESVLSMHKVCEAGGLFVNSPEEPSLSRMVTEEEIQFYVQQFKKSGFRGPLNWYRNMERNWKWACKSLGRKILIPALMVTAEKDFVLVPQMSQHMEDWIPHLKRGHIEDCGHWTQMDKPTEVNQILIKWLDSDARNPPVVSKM

[2] = target: T2, Leukotriene A-4 hydrolase (Homo sapiens, UniProt P09960); assay: Inhibition of (His)6 tagged human recombinant LTA4H expressed in Escherichia coli BL21(DE3) using non-fluorescent L-arginine-7-amino-4-methylcoumarine as substrate preincubated for 30 mins followed by substrate addition and measured for 30 mins by fluorescence based assay
T2 sequence (P09960 whole entry): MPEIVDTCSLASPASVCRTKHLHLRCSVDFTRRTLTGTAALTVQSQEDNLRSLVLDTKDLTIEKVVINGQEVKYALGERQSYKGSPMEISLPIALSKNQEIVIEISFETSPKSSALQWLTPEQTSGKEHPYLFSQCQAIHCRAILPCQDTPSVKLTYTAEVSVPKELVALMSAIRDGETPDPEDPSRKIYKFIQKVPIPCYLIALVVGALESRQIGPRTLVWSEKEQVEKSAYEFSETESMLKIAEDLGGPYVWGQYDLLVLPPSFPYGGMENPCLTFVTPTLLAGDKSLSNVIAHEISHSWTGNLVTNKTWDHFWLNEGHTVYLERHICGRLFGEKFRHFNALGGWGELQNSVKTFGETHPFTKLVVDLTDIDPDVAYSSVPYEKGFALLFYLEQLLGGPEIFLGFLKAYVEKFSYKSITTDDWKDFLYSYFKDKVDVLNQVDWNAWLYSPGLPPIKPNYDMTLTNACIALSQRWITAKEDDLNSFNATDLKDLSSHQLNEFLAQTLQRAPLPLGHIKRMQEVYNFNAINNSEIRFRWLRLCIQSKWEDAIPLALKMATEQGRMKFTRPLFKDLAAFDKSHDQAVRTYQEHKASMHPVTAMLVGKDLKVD

| IC50 [1] | IC50 [2] | Structure (SMILES) |
| --- | --- | --- |
| 1100 nM | > 30000 nM | Cc1ccc(CCNC(=O)Cc2ccc(Oc3ccccc3)cc2)cc1 |
| 1700 nM | > 30000 nM | O=C(Cc1ccc(Oc2nc3cc(C(F)(F)F)ccc3s2)cc1F)NCCc1ccc(F)cc1 |
| 800 nM | > 30000 nM | O=C(CCc1ccc(OCc2ccncc2)cc1)NCCc1ccc(F)cc1 |
| 1800 nM |  | O=C(Cc1ccc(Oc2ccccc2)cc1)NCCc1ccc(Cl)cc1 |
| 5600 nM | 900 nM | O=C(Cc1ccc(Oc2nc3ccccc3s2)cc1F)NCc1c[nH]c2cc(F)ccc12 |
| 900 nM |  | O=C(Cc1ccc(Oc2ccccc2)cc1)NCCc1ccc(F)cc1 |
| 100 nM | > 30000 nM | COC(=O)c1ccc(CNC(=O)Cc2ccc(Oc3nc4ccccc4s3)cc2F)cc1 |
| 600 nM | 3800 nM | O=C(Cc1ccc(Oc2nc3ccccc3s2)cc1F)NCCc1ccccc1F |
| 22500 nM | > 30000 nM | O=C(Cc1ccc(Oc2nc3cc(F)ccc3s2)cc1F)NCCc1ccc(F)cc1 |
| 27500 nM | > 30000 nM | O=C(Cc1ccc(Oc2nc3ccc(F)cc3s2)cc1F)NCCc1ccc(F)cc1 |
| 130 nM | 240 nM | O=C(Cc1ccc(Oc2nc3ccccc3s2)cc1)NCCc1ccc(F)cc1 |
| 500 nM |  | O=C(Cc1ccc(Oc2ccccc2)cc1)NCCc1ccc(OC(F)(F)F)cc1 |
| 500 nM |  | O=C(Cc1ccc(Oc2ccccc2)cc1)NCCc1ccc(C(F)(F)F)cc1 |
| 400 nM |  | O=C(Cc1ccc(Oc2nc3ccccc3s2)cc1F)NCCc1cccc(F)c1 |

| Structure (SMILES) | IC50 [1] | IC50 [2] |
| --- | --- | --- |
| Fc1ccc(CCNCc2ccc(Oc3ccccc3)cc2)cc1 | 3600 nM | 200 nM |
| O=C(Cc1ccc(Oc2nc3ccc(C(F)(F)F)cc3s2)cc1F)NCCc1ccc(F)cc1 | 20100 nM | > 30000 nM |
